Test [1] concerns the target mammalian CB2 receptors (Homo sapiens, UniProt P34972). Conditions: cited from earlier work.
Test [2] concerns gram-positive bacteria, including Streptococcus agalactiae, Enterococcus faecalis, Staphylococcus epidermidis, and prominent MRSA strains. Put plainly: Growth and biofilm formation of gram-positive strains, crystal violet stain quantified at 600 nm (Example 2, FIG. 3). Conditions: 30 μM, overnight, 35±2° C.; for growth of gram-positive bacteria, including MRSA: 2 mL broth; for biofilm formation of gram-positive bacteria, including MRSA: crystal violet stain solubilized, 600 nm. It counts as cell-based. The method, then:
(§1) The efficacy of the compounds were again tested against different strains of gram-positive bacteria, including Streptococcus agalactiae, Enterococcus faecalis, Staphylococcus epidermidis, and prominent MRSA (hospital-acquired and community-acquired) strains. Broth inoculum was prepared from 18-24 hours old colonies grown on standard agar plates. Approximately four of the fresh colonies were swiped with a sterile cotton Q-tip and then suspended in saline by immersion and light swirling. The turbidity was adjusted to equal that of a 0.5 McFarland turbidity standard using a spectrophotometer (600 nm). The amount corresponded to about 1.5×10^8 CFU/mL, where CFU stands for colony-forming units, and is equivalent to an absorbance at 600 nm equal to 0.132 or a percentage transmission equal to 74.3. […] Sterile 4 mL polystyrene tubes (12×75 mm) with caps were used for this purpose.
The bacteria were allowed to incubate overnight in 2 mL broth at 35±2° C. in the presence or absence of various experimental compounds or antibiotics. The amount of biofilm was visualized qualitatively, then stained with crystal violet. Biofilm attached to the side of the tube was stained purple. After staining, the tubes were decanted and rinsed, leaving stained biofilm adhering to the tubes. Next, the stain was solubilized and mixed with ethanol (EtOH) or dimethylsulfoxide (DMSO). The turbidity of the so lubilized stain, or lack thereof, was then quantified in a spectrophotometer (600 nm). In the broth only sample, no bacteria were added. In the negative controls, no compounds were added. The vehicle controls were made up of the appropriate dilution of the different solvent used to dissolve the experimental compounds, including ethanol (EtOH) or dimethylsulfoxide (DMSO). The experimental compounds tested included 30 μM of CP55,940, 30 μM of O-2050, 30 μM of linoleyl ethanolamide, 30 μM of no ladin ether, and 30 μM of anandamide (natural product 2). High concentrations of silver nitrate (1000 μM) and vancomycin (50 μg/mL) served as positive antimicrobial controls.

The target of test [3] is mammalian CB1 receptors (Homo sapiens, UniProt P21554). The conditions noted are these: cited from earlier work.
Test [4] concerns MRSA bacteria. The experiment in a line: MRSA bacterial growth and biofilm formation in broth tubes, crystal violet stain (Example 1, FIG. 2). It counts as cell-based, Methicillin-resistant Staphylococcus aureus. Conditions: about 5000 CFU/mL, 16-20 hours, 2 mL broth, 35±2° C., CP55,940 and LEA at 30 μm; for MRSA biofilm formation: crystal violet, qualitative. How it is done:
as §1, with “broth” for “efficacy of the compounds were again tested against different strains of gram-positive bacteria, including Streptococcus agalactiae, Enterococcus faecalis, Staphylococcus epidermidis, and prominent MRSA (hospital-acquired and community-acquired) strains. Broth”
MRSA bacteria (about 5000 CFU/mL) were allowed to grow for 16-20 hours in 2 mL broth at 35±2° C. in the presence or absence of various experimental compounds or antibiotics. The amount of biofilm was visualized qualitatively after being stained with crystal violet. Biofilm attached to the side of the tube was stained purple. The compounds CP55,940, LEA, and capsaicin were all tested at 30 μm. In the negative control, no compounds were added. The vehicle controls were made up of the appropriate dilution of the different solvent used to dissolve the experimental compounds, including methanol (MeOH), ethanol (EtOH) or dimethylsulfoxide (DMSO). The experimental compounds tested included CP55,940, noladin ether, O-2050, and linoleyl ethanolamide. High concentrations of the antibiotics zeocin and ampicillin served as positive antimicrobial controls. […] The no bacteria group contained only media and no bacteria, and served as another control.

The source of these data is patent US20110301078A1, “PREVENTION OF BACTERIAL GROWTH AND BIOFILM FORMATION BY LIGANDS THAT ACT ON CANNABINOIDERGIC SYSTEMS” (priority 2008, published 2011).

Sequence of mammalian CB2 receptors (P34972 whole entry): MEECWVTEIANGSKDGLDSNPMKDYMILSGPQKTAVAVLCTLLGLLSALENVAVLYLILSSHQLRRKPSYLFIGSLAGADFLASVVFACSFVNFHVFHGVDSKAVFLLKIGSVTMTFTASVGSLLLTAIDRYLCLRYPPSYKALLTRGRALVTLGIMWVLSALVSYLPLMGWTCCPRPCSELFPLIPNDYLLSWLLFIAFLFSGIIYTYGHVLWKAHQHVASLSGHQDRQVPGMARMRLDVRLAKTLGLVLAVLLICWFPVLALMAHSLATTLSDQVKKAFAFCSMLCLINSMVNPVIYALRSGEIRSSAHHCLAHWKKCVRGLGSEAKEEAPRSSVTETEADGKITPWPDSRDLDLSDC
Sequence of mammalian CB1 receptors (P21554 whole entry): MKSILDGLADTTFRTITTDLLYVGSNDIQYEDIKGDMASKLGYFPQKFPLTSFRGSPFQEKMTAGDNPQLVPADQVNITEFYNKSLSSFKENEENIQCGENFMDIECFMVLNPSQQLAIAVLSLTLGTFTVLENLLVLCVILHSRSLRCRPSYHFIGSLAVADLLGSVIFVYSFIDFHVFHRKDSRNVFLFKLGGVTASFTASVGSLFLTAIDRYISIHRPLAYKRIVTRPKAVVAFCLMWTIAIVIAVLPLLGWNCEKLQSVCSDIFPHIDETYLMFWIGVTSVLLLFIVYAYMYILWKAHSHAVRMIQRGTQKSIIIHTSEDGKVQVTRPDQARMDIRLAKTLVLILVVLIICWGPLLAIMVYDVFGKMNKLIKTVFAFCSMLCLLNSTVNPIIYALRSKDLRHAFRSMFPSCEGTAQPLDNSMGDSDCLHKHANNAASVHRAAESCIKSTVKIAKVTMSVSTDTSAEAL

With `CCCCC/C=C\C/C=C\CCCCCCCC(=O)NCCO` [LEA, N-(2-hydroxyethyl)-9Z,12Z-octadecadienamide], in test [1], the “affinity for CB2 receptor” value is recorded as “poor affinity”. Also, in test [2], the “growth of gram-positive bacteria, including MRSA” value (“growth of gram-positive bacteria” for short) is “prevent” and the “biofilm formation of gram-positive bacteria, including MRSA” value (“biofilm formation … including MRSA” for short) was “prevent”. In addition, the “affinity for CB1 receptor” value in test [3] is on record as “poor affinity”. Also, in test [4], the MRSA growth result was “prevent” and the MRSA biofilm formation entry was “prevent”.
Regarding `CN[C@H]1C[C@@H](N)[C@H](O)[C@@H](O[C@@H]2O[C@H](CO)[C@H](O)[C@@H]3OC4(O[C@H]23)O[C@H]([C@@H](N)CO)[C@H](O)[C@H](O)[C@H]4O)[C@@H]1O` (stereo partly shown) [Hydromycin B, reference compound], the MRSA growth result in test [4] is “Relatively ineffective”.
On to `CC1=CC[C@@H]2[C@@H](C1)c1c(O)cc(CC#CCCCNS(C)(=O)=O)cc1OC2(C)C` [Compound O-2050], for which, in test [2], the “growth of gram-positive bacteria” value is listed as “prevent” and the “biofilm formation … including MRSA” value is recorded as “prevent”. Besides, in test [4], the MRSA growth entry is “prevent” and the MRSA biofilm formation entry is on record as “prevent”.
As to `CCCCCCC(C)(C)c1ccc([C@@H]2C[C@H](O)CC[C@H]2CCCO)c(O)c1` [CP55,940, (−)-cis-3-[2-Hydroxy-4-(1,1-dimethylheptyl)phenyl]-tran s-4-(3-hydroxypropyl)cyclohexanol], the “affinity for CB2 receptor” value in test [1] is “high affinity”. In addition, in test [2], the “growth of gram-positive bacteria” value is listed as “prevent” and the “biofilm formation … including MRSA” value is “prevent”. In test [3], the “affinity for CB1 receptor” value was “high affinity”. Further, in test [4], the MRSA growth entry is reported as “prevent” and the MRSA biofilm formation result was “prevent”.
`CCCCC/C=C\C/C=C\C/C=C\C/C=C\CCCCOC(CO)CO` [noladin ether, 2-[(5Z,8Z,11Z,14Z)-eicosatetraenyloxy]-1,3-propanediol]: in test [4], the MRSA growth result was “prevent” and the MRSA biofilm formation entry is “prevent”.
